Values quoted from earlier work, collected in US9867391B2, “Accelerating muscle recovery after immobilization-induced muscle atrophy” (NESTEC S.A., priority 2011, dated 2018).

System: muscle protein synthesis
Settings: Kastanos et al. 2006

Q: With CC(C)C[C@H](N)C(=O)O [leucine] as the compound, how does the “muscle protein synthesis in young subjects” value (leucine added to the diet, young subjects) read?
A: did not increased muscle protein synthesis

Q: What about the “muscle protein synthesis in elderly” value (same leucine supplementation, elderly) of the same compound?
A: efficient
